Experimental data taken from patent publication US7612064B2, “Sulfopyrroles” (Takeda Pharmaceutical Company Limited, priority 2003, dated 2009).
pIC50: −log10 of the molar value.

Key:
Jurkat = experiment: MTS proliferation assay; assay type: cell-based, human; conditions: 72 h
In short: (§1)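 Viability read-out is MTS absorbance at 492 nm after 3 h reagent incubation. It follows 72 h culture-condition treatment at four final concentrations (10, 3, 1, 0.3 μM), compounds delivered in medium holding max 5% DMSO.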

HeLa = experiment: MTS proliferation assay; assay type: cell-based, human; conditions: 72 h
In short: as §1

[1] = Hoechst 33342 nuclear staining; assay type: cell-based; conditions: for Hoechst 33342 nuclear staining score, H460: H460 cells; for Hoechst 33342 nuclear staining score, HeLa: HeLa cells; for Hoechst 33342 nuclear staining score, Jily: Jily cells; for Hoechst 33342 nuclear staining score, Jurkat: Jurkat cells; for Hoechst 33342 nuclear staining score, MRC5: MRC5 cells; for Hoechst 33342 nuclear staining score, PBLs: key: 0: no activity; 1: weak activity comprising less than 50% of the cells; 2: strong activity comprising more than 50% of the cells;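 for all read-outs here: apoptotic nuclei scored 0 none 1 weak under 50% of cells 2 strong over 50% of cells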
In short: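 Cells were plated in 96 well tissue culture plates in 80 μl complete medium, with 3-5*10^3 cells per well for adherent lines and 8-10*10^3 for suspension lines. Adherent cells spread for 24 h before treatment, while suspension cells were treated right after seeding. Compounds were added in 20 μl complete medium containing max 5% DMSO.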

MRC5 = experiment: MTS proliferation assay; assay type: cell-based; conditions: MRC5, 72 h
In short: as §1

[2] = conc 0.1 (final concentrations in μM), 24 h or 48 h incubation
[3] = conc 0.3 (final concentrations in μM), 24 h or 48 h incubation
[4] = conc 1 (final concentrations in μM), 24 h or 48 h incubation
[5] = conc 3 (final concentrations in μM), 24 h or 48 h incubation
[6] = conc 10 (final concentrations in μM), 24 h or 48 h incubation

| Compound | pIC50 (Jurkat) | pIC50 (HeLa) | Hoechst 33342 nuclear staining score, H460 ([1]; conc 0.1) | Hoechst 33342 nuclear staining score, H460 ([1]; conc 0.3) | Hoechst 33342 nuclear staining score, H460 ([1]; conc 1) | Hoechst 33342 nuclear staining score, H460 ([1]; conc 3) | Hoechst 33342 nuclear staining score, HeLa ([1]; conc 0.1) | Hoechst 33342 nuclear staining score, HeLa ([1]; conc 0.3) | Hoechst 33342 nuclear staining score, HeLa ([1]; conc 1) | Hoechst 33342 nuclear staining score, HeLa ([1]; conc 3) | Hoechst 33342 nuclear staining score, Jily ([1]; conc 0.1) | pIC50 (MRC5) | Hoechst 33342 nuclear staining score, HeLa [1, 2] | Hoechst 33342 nuclear staining score, HeLa [1, 3] | Hoechst 33342 nuclear staining score, HeLa [1, 4] | Hoechst 33342 nuclear staining score, HeLa [1, 5] | Hoechst 33342 nuclear staining score, Jurkat [1, 2] | Hoechst 33342 nuclear staining score, Jurkat [1, 3] | Hoechst 33342 nuclear staining score, Jurkat [1, 4] | Hoechst 33342 nuclear staining score, Jurkat [1, 5] | further results |
| --- | --- | --- | --- | --- | --- | --- | --- | --- | --- | --- | --- | --- | --- | --- | --- | --- | --- | --- | --- | --- | --- |
| COc1cc(-c2cc(CNc3ccc(-n4cncn4)cc3)cn2S(=O)(=O)c2ccc(C)cc2)cc(OC)c1OC [Example 68] | > 6.00 | > 6.00 | 0 | 0 | 2 (strong activity comprising more than 50% of the cells) | 2 (strong activity comprising more than 50% of the cells) | 0 | 0 | 0 | 2 (strong activity comprising more than 50% of the cells) | 0 | < 6.00 |  |  |  |  |  |  |  |  | Hoechst 33342 nuclear staining score, Jily ([1]; conc 0.3): 0; Hoechst 33342 nuclear staining score, Jily ([1]; conc 1): 2 (strong activity comprising more than 50% of the cells); Hoechst 33342 nuclear staining score, Jily ([1]; conc 3): 2 (strong activity comprising more than 50% of the cells); Hoechst 33342 nuclear staining score, Jurkat ([1]; conc 0.1): 0; Hoechst 33342 nuclear staining score, Jurkat ([1]; conc 0.3): 0; Hoechst 33342 nuclear staining score, Jurkat ([1]; conc 1): 2 (strong activity comprising more than 50% of the cells); Hoechst 33342 nuclear staining score, Jurkat ([1]; conc 3): 2 (strong activity comprising more than 50% of the cells); Hoechst 33342 nuclear staining score, MRC5 ([1]; conc 0.1): 0; Hoechst 33342 nuclear staining score, MRC5 ([1]; conc 0.3): 0; Hoechst 33342 nuclear staining score, MRC5 ([1]; conc 1): 0; Hoechst 33342 nuclear staining score, MRC5 ([1]; conc 3): 2 (strong activity comprising more than 50% of the cells); Hoechst 33342 nuclear staining score, PBLs ([1]; conc 0.1): 0; Hoechst 33342 nuclear staining score, PBLs ([1]; conc 0.3): 0; Hoechst 33342 nuclear staining score, PBLs ([1]; conc 1): 0; Hoechst 33342 nuclear staining score, PBLs ([1]; conc 3): 0 |
| Cc1ccc(S(=O)(=O)n2cc(CNCCCN3CCCC3)cc2-c2ccc3c(c2)OCO3)cc1 [Example 22] | < 6.00 | < 6.00 |  |  |  |  |  |  |  |  |  | < 6.00 | 0 | 0 | 0 | 0 | 0 | 0 | 0 | 0 |  |
| Cc1ccc(S(=O)(=O)n2cc(CNCCCN3CCN(Cc4ccccc4)CC3)cc2-c2ccc3c(c2)OCO3)cc1 [Example 23] | < 6.00 | < 6.00 |  |  |  |  |  |  |  |  |  | < 6.00 | 0 | 0 | 0 | 0 | 0 | 0 | 0 | 0 |  |
| COc1cc(-c2cc(-c3cncc(C(=O)O)c3)cn2S(=O)(=O)c2ccc(C)cc2)cc(OC)c1OC.N [Example 66] | < 6.00 | < 6.00 | 0 | 0 | 0 | 0 | 0 | 0 | 0 | 0 | 0 | < 6.00 |  |  |  |  |  |  |  |  | Hoechst 33342 nuclear staining score, Jily ([1]; conc 0.3): 0; Hoechst 33342 nuclear staining score, Jily ([1]; conc 1): 0; Hoechst 33342 nuclear staining score, Jily ([1]; conc 3): 0; Hoechst 33342 nuclear staining score, Jurkat ([1]; conc 0.1): 0; Hoechst 33342 nuclear staining score, Jurkat ([1]; conc 0.3): 0; Hoechst 33342 nuclear staining score, Jurkat ([1]; conc 1): 0; Hoechst 33342 nuclear staining score, Jurkat ([1]; conc 3): 0; Hoechst 33342 nuclear staining score, MRC5 ([1]; conc 0.1): 0; Hoechst 33342 nuclear staining score, MRC5 ([1]; conc 0.3): 0; Hoechst 33342 nuclear staining score, MRC5 ([1]; conc 1): 0; Hoechst 33342 nuclear staining score, MRC5 ([1]; conc 3): 0; Hoechst 33342 nuclear staining score, PBLs ([1]; conc 0.1): 0; Hoechst 33342 nuclear staining score, PBLs ([1]; conc 0.3): 0; Hoechst 33342 nuclear staining score, PBLs ([1]; conc 1): 0; Hoechst 33342 nuclear staining score, PBLs ([1]; conc 3): 0 |
| COc1cc(-c2cc(-c3cncc(C(=O)NCCC4CCCN4C)c3)cn2S(=O)(=O)c2ccc(C)cc2)cc(OC)c1OC.Cl (stereo not drawn) [Example 62] | < 6.00 | < 6.00 | 0 | 0 | 0 | 0 | 0 | 0 | 0 | 0 | 0 | < 6.00 |  |  |  |  |  |  |  |  | Hoechst 33342 nuclear staining score, Jily ([1]; conc 0.3): 0; Hoechst 33342 nuclear staining score, Jily ([1]; conc 1): 0; Hoechst 33342 nuclear staining score, Jily ([1]; conc 3): 0; Hoechst 33342 nuclear staining score, Jurkat ([1]; conc 0.1): 0; Hoechst 33342 nuclear staining score, Jurkat ([1]; conc 0.3): 0; Hoechst 33342 nuclear staining score, Jurkat ([1]; conc 1): 0; Hoechst 33342 nuclear staining score, Jurkat ([1]; conc 3): 2 (strong activity comprising more than 50% of the cells); Hoechst 33342 nuclear staining score, MRC5 ([1]; conc 0.1): 0; Hoechst 33342 nuclear staining score, MRC5 ([1]; conc 0.3): 0; Hoechst 33342 nuclear staining score, MRC5 ([1]; conc 1): 0; Hoechst 33342 nuclear staining score, MRC5 ([1]; conc 3): 0; Hoechst 33342 nuclear staining score, PBLs ([1]; conc 0.1): 0; Hoechst 33342 nuclear staining score, PBLs ([1]; conc 0.3): 0; Hoechst 33342 nuclear staining score, PBLs ([1]; conc 1): 0; Hoechst 33342 nuclear staining score, PBLs ([1]; conc 3): 0 |
| Cc1ccc(S(=O)(=O)n2cc(CN(C)CCN(C)C)cc2-c2ccc3c(c2)OCO3)cc1 [Example 31] | < 6.00 | < 6.00 |  |  |  |  |  |  |  |  |  | < 6.00 | 0 | 0 | 0 | 0 | 0 | 0 | 0 | 0 |  |
| Cc1ccc(S(=O)(=O)n2cc(CNc3ccc(N4CCOCC4)cc3N3CCOCC3)cc2-c2ccc3c(c2)OCO3)cc1 [Example 39] | < 6.00 | < 6.00 |  |  |  |  |  |  |  |  |  | < 6.00 |  | 0 | 0 | 0 |  | 0 | 0 | 0 | Hoechst 33342 nuclear staining score, HeLa [1, 6]: 0; Hoechst 33342 nuclear staining score, Jurkat [1, 6]: 0 |
| Cc1ccc(S(=O)(=O)n2cc(CN3CCN(c4ncccn4)CC3)cc2-c2ccc3c(c2)OCO3)cc1 [Example 28] | < 6.00 | < 6.00 |  |  |  |  |  |  |  |  |  | < 6.00 | 0 | 0 | 0 | 0 | 0 | 0 | 0 | 0 |  |
| Cc1ccc(S(=O)(=O)n2cc(-c3cccnc3)cc2-c2ccc3c(c2)OCO3)cc1 [Example 49] | < 6.00 | < 6.00 |  |  |  |  |  |  |  |  |  | < 6.00 | 0 | 0 | 0 | 0 | 0 | 0 | 0 | 0 |  |
| O=S(=O)(c1cccc(Cl)c1)n1cc(CNc2ccc(-n3ccnc3)cc2)cc1-c1ccc2c(c1)OCO2 [Example 74] | < 6.00 | < 6.00 | 0 | 0 | 0 | 0 | 0 | 0 | 0 | 0 | 0 | < 6.00 |  |  |  |  |  |  |  |  | Hoechst 33342 nuclear staining score, Jily ([1]; conc 0.3): 0; Hoechst 33342 nuclear staining score, Jily ([1]; conc 1): 0; Hoechst 33342 nuclear staining score, Jily ([1]; conc 3): 0; Hoechst 33342 nuclear staining score, Jurkat ([1]; conc 0.1): 0; Hoechst 33342 nuclear staining score, Jurkat ([1]; conc 0.3): 0; Hoechst 33342 nuclear staining score, Jurkat ([1]; conc 1): 0; Hoechst 33342 nuclear staining score, Jurkat ([1]; conc 3): 0; Hoechst 33342 nuclear staining score, MRC5 ([1]; conc 0.1): 0; Hoechst 33342 nuclear staining score, MRC5 ([1]; conc 0.3): 0; Hoechst 33342 nuclear staining score, MRC5 ([1]; conc 1): 0; Hoechst 33342 nuclear staining score, MRC5 ([1]; conc 3): 0; Hoechst 33342 nuclear staining score, PBLs ([1]; conc 0.1): 0; Hoechst 33342 nuclear staining score, PBLs ([1]; conc 0.3): 0; Hoechst 33342 nuclear staining score, PBLs ([1]; conc 1): 0; Hoechst 33342 nuclear staining score, PBLs ([1]; conc 3): 0 |
